# Measured values taken from patent US11801272B2, “Bacillus strains improving health and performance of production animals” (Novozymes A/S, priority 2015, dated 2023).
# Where two headings read alike, the source gives them in different places. Where a SMILES comes first, the peptide text is derived from it. Bridges are numbered along the chain shown (N, C = ends). [ ]: non-standard residue; d: D form. The star is where a group is joined. Ileψ(thiazoline)Cys = CC[C@H](C)[C@H](N)C1=N[C@H](C(=O)*)CS1; dOrn = NCCC[C@@H](N)C(=O)O
# What was measured:
# Clostridium perfringens = assay type: in vivo, broiler chickens Cobb×Cobb; conditions: infected, bacitracin 50 ppm
# B. subtilis DSM 29870 = assay type: cell-based; conditions: Bacillus subtilis
# [1] = system: B. amyloliquefaciens DSM 29869; assay type: cell-based; conditions: Bacillus amyloliquefaciens, DSM29869, 37° C., 20-24 h
# B. subtilis DSM 29871 = assay type: cell-based; conditions: Bacillus subtilis
# [2] = Trial 1, DSM 29870 1.10^9 CFU/kg of feed
# [3] = Trial 3, DSM 29870 5.10^8 CFU/kg of feed
SMILES,Dead birds with necrotic enteritis lesions (d1-d28) (Clostridium perfringens; [2]) [b %],Total mortality (d1-d28) (Clostridium perfringens; [2]) [b %],"Dead birds with necrotic enteritis lesions (d1-d28) (Clostridium perfringens; Trial 2, DSM 29870 5.10^8 CFU/kg of feed) [c %]",Dead birds with necrotic enteritis lesions (d1-d28) (Clostridium perfringens; [3]) [bc %],Total mortality (d1-d28) (Clostridium perfringens; [3]) [a %],"MIC (B. subtilis DSM 29870; DSM29870, read-out: MIC 1) [µg/mL]","MIC (B. subtilis DSM 29870; DSM29870, read-out: MIC 2) [µg/mL]","MIC (B. subtilis DSM 29870; DSM29870, read-out: MIC 3) [µg/mL]","MIC ([1]; biological replicate 1, read-out: MIC 1) [µg/mL]","MIC ([1]; biological replicate 2, read-out: MIC 2) [µg/mL]","MIC ([1]; biological replicate 3, read-out: MIC 3) [µg/mL]","MIC (B. subtilis DSM 29871; DSM29871, read-out: MIC 1) [µg/mL]","MIC (B. subtilis DSM 29871; DSM29871, read-out: MIC 2) [µg/mL]","MIC (B. subtilis DSM 29871; DSM29871, read-out: MIC 3) [µg/mL]"
CC[C@H](C)[C@H](N)C1=N[C@H](C(=O)N[C@@H](CC(C)C)C(=O)N[C@H](CCC(=O)O)C(=O)N[C@H](C(=O)N[C@H]2CCCCNC(=O)[C@H](CC(N)=O)NC(=O)[C@@H](CC(=O)O)NC(=O)[C@H](Cc3cnc[nH]3)NC(=O)[C@@H](Cc3ccccc3)NC(=O)[C@H]([C@@H](C)CC)NC(=O)[C@@H](CCCN)NC2=O)[C@@H](C)CC)CS1 [bacitracin] ({Ileψ(thiazoline)Cys}-L[dE]IK[dOrn]I[dF]H[dD]N; lactam 4-C),1.6,5.0,6.3,4.7,15.0,,,,,,,,,
CN[C@H](CC(C)C)C(=O)N[C@H]1C(=O)N[C@@H](CC(N)=O)C(=O)N[C@H]2C(=O)N[C@H]3C(=O)N[C@H](C(=O)N[C@H](C(=O)O)c4cc(O)cc(O)c4-c4cc3ccc4O)[C@H](O)c3ccc(c(Cl)c3)Oc3cc2cc(c3O[C@@H]2O[C@H](CO)[C@@H](O)[C@H](O)[C@H]2O[C@H]2C[C@](C)(N)[C@H](O)[C@H](C)O2)Oc2ccc(cc2Cl)[C@H]1O [Vancomycin],,,,,,0.25,0.25,0.25,0.25,0.25,0.25,0.25,0.25,0.25
